The values that follow come from patent US7094911B2, “Biphenyl and biphenyl-analogous compounds as integrin antagonists” (Bayer Aktiengesellschaft, priority 1998, dated 2006).

SMILES strings stand for the structures. Some results are limits rather than exact numbers.

The compound `O=C(O)C[C@@H](NS(=O)(=O)c1cccc(-c2cccc(NC(=O)N=c3[nH]c4ccccc4[nH]3)c2)c1)c1ccccc1` [Example 4.91] returned a melting point of 189 °C.
In the case of `O=C(O)[C@H](Cc1ccc(-c2cccc(CNc3ccccn3)c2)cc1)NS(=O)(=O)c1cccs1` [Example 18.9], the melting point was over 240 °C.
The same measure for `COc1ccc(-c2cccc(NC(=O)NC3CC3)c2)cc1S(=O)(=O)NCC(=O)O` [Example 4.77]: 128 °C.
For the compound `COc1ccc(-c2cccc(NC(=O)N=c3[nH]c4ccccc4[nH]3)c2)cc1S(=O)(=O)N[C@H](CC(=O)O)c1ccccc1` [Example 4.88], the melting point was 151 °C (dec.).
The compound `CC1(C)C2CC[C@@]1(CS(=O)(=O)N[C@@H](Cc1ccc(-c3ccc(NC(=O)NCc4ccccn4)cc3)cc1)C(=O)O)C(=O)C2` [Example 1.213] came in with a melting point of 202 °C.
For `C[C@@H](NS(=O)(=O)c1cccc(-c2cccc(NC(=O)NCC(F)(F)C(F)(F)F)c2)c1)C(=O)O` [Example 4.93] the value was 112 °C.
For `CN(CC(=O)O)S(=O)(=O)c1cccc(-c2cccc(NC(=O)N=c3[nH]c4ccccc4[nH]3)c2)c1` [Example 6.13] the value was 184 °C; for `O=C(O)CNS(=O)(=O)c1cccc(-c2cccc(NC(=O)Nc3nc4ccccc4[nH]3)c2)c1` [Example 4.38], 172 °C.
With `CC1(C)[C@H]2CCC1(CS(=O)(=O)N[C@@H](Cc1ccc(-c3cccc(N/C(=C/[N+](=O)[O-])NC4CCC4)c3)cc1)C(=O)O)C(=O)C2` [Example 12.9], the melting point is 151 °C (dec.).
`CN(CC(=O)O)S(=O)(=O)c1cccc(-c2cccc(NC(=O)Nc3ccncc3)c2)c1` [Example 6.14] displayed a melting point of 142 °C.
For `COc1ccc(-c2cccc(NC(=O)N=c3[nH]c4cc(C)c(C)cc4[nH]3)c2)cc1S(=O)(=O)NC(CC(=O)O)c1ccccc1` (stereo not shown) [Example 4.104] the value was over 240 °C.
Turning to `O=C(O)C[C@@H](NS(=O)(=O)c1cccc(-c2cccc(NC(=O)NCc3ccc(C(F)(F)F)cc3)c2)c1)c1ccccc1` [Example 4.95], the melting point came out at 186 °C.
In the case of `C#CCN/C(=C\[N+](=O)[O-])Nc1cccc(-c2ccc(C[C@H](NS(=O)(=O)CC34CC[C@@H](CC3=O)C4(C)C)C(=O)O)cc2)c1` [Example 12.6], the melting point was 185 °C (dec.).
For `COc1ccc(-c2ccc(NC(=O)NCc3ccccn3)cc2)cc1S(=O)(=O)NC(CC(=O)O)c1ccccc1` (stereo not shown) [Example 4.69] the value was 158 °C.
For `CCCCNC(=O)Nc1cccc(-c2ccc(OC)c(S(=O)(=O)N[C@@H](CC(=O)O)c3ccccc3)c2)c1` [Example 4.96] the value was 156 °C; for `CCS(=O)(=O)N[C@@H](Cc1ccc(-c2cccc(CNc3ccccn3)c2)cc1)C(=O)O` [Example 18.7], over 240 °C.
`C[C@@H](NS(=O)(=O)c1cccc(-c2cccc(NC(=O)NCc3ccccn3)c2)c1)C(=O)O` [Example 4.82] returned a melting point of 149 °C.
In turn, `Cc1cc(C)c(S(=O)(=O)NC(Cc2cccc(-c3ccc(NC(=O)Nc4ccncc4)cc3)c2)C(=O)O)c(C)c1` (stereo not shown) [Example 1.201] came in with a melting point of 188 °C.
For `O=C(O)CC(NS(=O)(=O)c1cccc(-c2cccc(Nc3nccs3)c2)c1)c1ccccc1` (stereo not shown) [Example 15.1.2, 3-phenyl-3-{[3′-(1,3-thiazol-2-ylamino)[1,1′-biphenyl]-3-yl]sulfonylamino}-propanoic acid], the melting point is 130 °C (dec.).
For `O=C(Nc1cccc(-c2ccc(C[C@H](NS(=O)(=O)CCCC(F)(F)F)C(=O)O)cc2)c1)NC1CC1` [Example 1.162] the value was 202 °C.
Regarding `Cc1cc(C)c(S(=O)(=O)N[C@@H](Cc2ccc(-c3cccc(NC(=O)Nc4nccs4)c3)cc2)C(=O)O)c(C)c1` [Example 1.198], the melting point was determined as 212 °C.
`COc1ccc(-c2ccc(NC(=O)NCc3cccnc3)cc2)cc1S(=O)(=O)NC(CC(=O)O)c1ccccc1` (stereo not shown) [Example 4.67]: the melting point was 161 °C.
For `O=C(O)[C@H](Cc1ccc(-c2cccc(CNc3ccccn3)c2)cc1)NS(=O)(=O)c1c(Cl)cccc1Cl` [Example 18.13] the value was over 240 °C; for `O=C(O)CC(NS(=O)(=O)c1cccc(-c2cccc(NC(=O)Nc3nc4ccccc4[nH]3)c2)c1)c1cccnc1` (stereo not shown) [Example 4.41], 170 °C; for `Cc1cc(C)c(S(=O)(=O)N[C@@H](Cc2ccc(-c3cccc(N/C(=C/[N+](=O)[O-])NC4CC4)c3)cc2)C(=O)O)c(C)c1` [Example 12.1.5, (2S)-3-(3′-{[(E)-1-(cyclopropylamino)-2-nitroethenyl]amino}[1,1′-biphenyl]-4-yl)-2-[(mesitylsulfonyl)amino]-propanoic acid], 149 °C.
`Cc1cc(C)c(S(=O)(=O)N[C@@H](Cc2ccc(-c3cccc(NC(=O)Nc4cc(C)on4)c3)cc2)C(=O)O)c(C)c1` [Example 1.208] returned a melting point of 189 °C.
`COc1ccc(-c2cccc(Nc3ccccn3)c2)cc1S(=O)(=O)NC(CC(=O)O)c1ccccc1` (stereo not shown) [Example 20.5] showed a melting point of over 240 °C.
For `CC1(C)C2CC[C@@]1(CS(=O)(=O)N[C@@H](Cc1ccc(-c3ccc(NC(=O)Nc4ccncc4)cc3)cc1)C(=O)O)C(=O)C2` [Example 1.214] the value was 207 °C; for `Cc1cc(C)c(S(=O)(=O)N[C@@H](Cc2ccc(-c3cccc(NC(=O)Nc4cc(C(C)(C)C)on4)c3)cc2)C(=O)O)c(C)c1` [Example 1.209], 180 °C.
For `N#C/N=C(\NCc1ccccc1)Nc1cccc(-c2cccc(S(=O)(=O)NC(CC(=O)O)c3ccccc3)c2)c1` (stereo not shown) [Example 10.1.5, 3-[(3′-{[(benzylamino)(cyanoimino)methyl]amino}[1,1′-biphenyl]-3-yl)sulfonylamino]-3-phenyl-propanoic acid] the value was 90 °C; for `C[C@@H](NS(=O)(=O)c1cccc(-c2cccc(NC(=O)N=c3[nH]c4ccccc4[nH]3)c2)c1)C(=O)O` [Example 4.83], 158 °C.
In turn, `CCCNC(=O)Nc1ccc(-c2cccc(CC(NS(=O)(=O)c3c(C)cc(C)cc3C)C(=O)O)c2)cc1` (stereo not shown) [Example 1.203] yielded a melting point of 119 °C.
The same measure for `Cc1cc(C)c(S(=O)(=O)N[C@@H](Cc2ccc(-c3cccc(Nc4n[s+]([O-])nc4NC4CC4)c3)cc2)C(=O)O)c(C)c1` (stereo partly drawn) [Example 17.1.3, (2S)-2-[(Mesitylsulfonyl)amino]-3-(3′-{[4-(cyclopropylamino)-1-oxo-1H-1[lambda]4,2,5-thiadiazol-3-yl]amino}[1,1′-biphenyl]-4-yl)-propanoic acid]: 180 °C (dec.).
The same measure for `Cc1cc(C)c(S(=O)(=O)N[C@@H](Cc2ccc(-c3cccc(Nc4c(NCc5ccccn5)c(=O)c4=O)c3)cc2)C(=O)O)c(C)c1` [Example 13.3]: 214 °C (dec.).
Regarding `COc1ccc(-c2cccc(NC(=O)NCc3ccc(C(F)(F)F)cc3)c2)cc1S(=O)(=O)N[C@H](CC(=O)O)c1ccccc1` [Example 4.90], the melting point was 111 °C (dec.).
On to `CCCN/C(=N\C#N)Nc1cccc(-c2ccc(C[C@H](NS(=O)(=O)c3c(C)cc(C)cc3C)C(=O)O)cc2)c1` [Example 10.6], for which the melting point was found to be 184 °C.
The same measure for `COc1ccc(-c2cccc(NC(=O)NCC(F)(F)F)c2)cc1S(=O)(=O)NC(CC(=O)O)c1ccccc1` (stereo not shown) [Example 4.100]: over 240 °C; for `CN(CC(=O)O)S(=O)(=O)c1cccc(-c2cccc(NC(=O)NC3CC3)c2)c1` [Example 6.11]: 117 °C.
For the compound `O=C(O)CC(NS(=O)(=O)c1cccc(-c2cccc(Nc3c(NCc4ccccn4)c(=O)c3=O)c2)c1)c1ccccc1` (stereo not shown) [Example 13.8], the melting point is 149 °C (dec.).
With `CCCNC(=O)Nc1cccc(-c2cccc(CC(NS(=O)(=O)c3c(C)cc(C)cc3C)C(=O)O)c2)c1` (stereo not shown) [Example 1.192], the melting point came out at 136 °C.
For `Cc1cc(C)c(S(=O)(=O)NC(Cc2cccc(-c3cccc(NC(=O)NCc4ccccn4)c3)c2)C(=O)O)c(C)c1` (stereo not shown) [Example 1.193] the value was 118 °C; for `O=C(O)[C@H](Cc1ccc(-c2cccc(CNc3ccccn3)c2)cc1)NS(=O)(=O)C1CC1` [Example 18.11], over 240 °C.
Compound `O=C(NCc1ccccc1)Nc1cccc(-c2ccc(C[C@H](NS(=O)(=O)CCCC(F)(F)F)C(=O)O)cc2)c1` [Example 1.161] came in with a melting point of 163 °C.
On to `Cc1cc(C)c(S(=O)(=O)N[C@@H](Cc2ccc(-c3cccc(NC(=O)NCC(F)(F)F)c3)cc2)C(=O)O)c(C)c1` [Example 1.206], for which the melting point is 124 °C.
Consider `COc1ccc(-c2ccc(NC(=O)NC3CC3)cc2)cc1S(=O)(=O)NC(CC(=O)O)c1ccccc1` (stereo not shown) [Example 4.76], for which the melting point amounted to 234 °C.
Take `CC1(C)[C@H]2CCC1(CS(=O)(=O)N[C@@H](Cc1ccc(-c3cccc(N/C(=C/[N+](=O)[O-])NCc4ccccn4)c3)cc1)C(=O)O)C(=O)C2` [Example 12.7]: the melting point was 126 °C (dec.).
Turning to `CC1(C)[C@H]2CCC1(CS(=O)(=O)N[C@@H](Cc1ccc(-c3cccc(N/C(=C/[N+](=O)[O-])NCc4cccnc4)c3)cc1)C(=O)O)C(=O)C2` [Example 12.8], the melting point was found to be 170 °C.
On to `Cc1cc(C)c(S(=O)(=O)N[C@@H](Cc2ccc(-c3cccc(NC(=O)c4ccc[nH]4)c3)cc2)C(=O)O)c(C)c1` [Example 19.2], for which the melting point is 140 °C (dec.).
In the case of `COc1ccc(-c2ccc(NC(=O)NCc3ccccc3)cc2)cc1S(=O)(=O)NC(CC(=O)O)c1ccccc1` (stereo not shown) [Example 4.70], the melting point turned out to be 150 °C.
For `CC1(C)[C@H]2CCC1(CS(=O)(=O)N[C@@H](Cc1ccc(-c3cccc(NC4=C(NC5CC5)C(=O)C4O)c3)cc1)C(=O)O)C(=O)C2` (stereo partly shown) [Example 13.5] the value was 152 °C; for `CCCCNC(=O)Nc1cccc(-c2ccc(OC)c(S(=O)(=O)N[C@H](CC(=O)O)c3ccccc3)c2)c1` [Example 4.87], 122 °C (dec.); for `Cc1cc(C)c(S(=O)(=O)NC(Cc2cccc(-c3cccc(NC(=O)Nc4ccncc4)c3)c2)C(=O)O)c(C)c1` (stereo not shown) [Example 1.194], 207 °C.

The term melting point denotes the temperature, or range, at which the solid turns liquid.
